Laboratory results published in patent publication US4098995A, “Polygalactosido-sucrose Poly(H-)sulfate salts” (American Cyanamid Company, priority 1976, dated 1978).
Values joined by “and” are separate entries in the source; they are usually repeats but may differ in a detail not shown here. Equal values may be shown once. Where a name gives a salt, the structure may show the parent alone.

Experiments:
[1] = literature; cited from earlier work
[2] = tested on: late components of human complement (C3-C9); assay: Test, Code 035 (C3-C9 inhibitor), lysis of EAC 142 by late complement components; format: cell-based; details: serial two-fold dilution assay; higher well number indicates higher activity
Text: (§1) An active inhibitor protects C2 from C1 and C4; (ii) Test, Code 035 (C3-C9 inhibitor) - This test determines the ability of the late components of human complement (C3-C9) to lyse EAC 142 in the presence of appropriate dilutions of the test compound. An active inhibitor protects EAC 142 from lysis by human C3-C9; (iii) Test, Code 036 (C-Shunt inhibitor) -- In this test human erythrocytes rendered fragile are lysed in autologous serum via the shunt pathway activated by cobra venom factor in the presence of appropriate dilutions of the test compound. Inhibition of the shunt pathway results in failure of lysis; (iv) Forssman Vasculitis Test -- Here, the well known complement dependent lesion, Forssman vasculitis, is produced in guinea pigs by intradermal injection of rabbit anti-Forssman antiserum. The lesion is measured in terms of diameter, edema and hemorrhage and the extent to which a combined index of these is inhibited by prior intraperitoneal injection of the test compound at 200 mg/kg is then reported, unless otherwise stated; (v) Forssman Shock Test -- Lethal shock is produced in guinea pigs by an i.v. injection of anti-Forssman antiserum and the harmonic mean death time of treated guinea pigs is compared with that of simultaneous controls; (vi) Complement Level Reduction Test -- In this test, the above dosed guinea pigs, or others, are bled for serum and the complement level is determined in undiluted serum by the capillary tube method of U.S. Pat. No. 3,876,376 and compared to undosed control guinea pigs; and (vii) Cap 50 Test -- Here, appropriate amounts of the test compound are added to a pool of guinea pig serum in vitro, after which the undiluted serum capillary tube assay referred to above is run. The concentration of compound inhibiting 50% is reported.
(§2) **Activity in wells, a serial dilution assay. Higher well numer indicates
(§3) higher activity. The serial dilutions are two-fold.

whole complement = assay: Complement Level Reduction Test in dosed guinea pigs (serum whole complement, capillary tube assay); format: in vivo, guinea pig; details: 200 mg/kg
activated human C1 = activated human C1 (Homo sapiens, UniProt P09871); assay: Test, Code 026 (C1 inhibitor); format: biochemical; details: serial two-fold dilution assay, higher well number indicates higher activity
Text: as §1, §2, §3

shunt pathway = assay: Test, Code 036 (C-Shunt inhibitor), lysis of fragile human erythrocytes via shunt pathway activated by cobra venom factor; format: cell-based; details: serial two-fold dilution assay, higher well number indicates higher activity
Text: as §1, §2, §3

complement [3] = assay: Complement inhibiting activity, tests disclosed herein
complement [4] = details: literature; cited from earlier work

NC[C@H]1CC[C@H](C(=O)O)CC1 [tranexamic acid]
treatment of hereditary angioneurotic edema [1]: used with success

O=S(=O)(O)OC[C@H]1O[C@H](OC[C@H]2O[C@H](OC[C@H]3O[C@H](O[C@]4(COS(=O)(=O)O)O[C@H](COS(=O)(=O)O)[C@@H](OS(=O)(=O)O)[C@@H]4OS(=O)(=O)O)[C@H](OS(=O)(=O)O)[C@@H](OS(=O)(=O)O)[C@@H]3OS(=O)(=O)O)[C@H](OS(=O)(=O)O)[C@@H](OS(=O)(=O)O)[C@H]2OS(=O)(=O)O)[C@H](OS(=O)(=O)O)[C@@H](OS(=O)(=O)O)[C@H]1OS(=O)(=O)O [Stachyose Poly(H--)sulfate Sodium Salt, Stachyose Poly(H-)sulfate Sodium Salt]
In Vitro Activity 035 [2]: N | In Vivo Activity (Guinea Pig) Percent Inhibition (whole complement; intraperitoneal, Time (Hours) 30): -47% | In Vivo Activity (Guinea Pig) Percent Inhibition (whole complement; intraperitoneal, Time (Hours) 60): -56% | In Vivo Activity (Guinea Pig) Percent Inhibition (whole complement; intraperitoneal, Time (Hours) 120): -65% | In Vivo Activity (Guinea Pig) Percent Inhibition (whole complement; intravenous, Time (Hours) 2): -86% | In Vivo Activity (Guinea Pig) Percent Inhibition (whole complement; intravenous, Time (Hours) 30): -93% | In Vivo Activity (Guinea Pig) Percent Inhibition (whole complement; intravenous, Time (Hours) 120): -17% | In Vitro Activity 026 (activity in wells) (activated human C1; Sodium Salt): 13 wells and 11 wells | In Vitro Activity 036 (shunt pathway; Sodium Salt): 4 wells and 2 wells

NCCCCCC(=O)O [epsilon-aminocaproic acid]
treatment of hereditary angioneurotic edema [1]: used with success

Stachyose trisulfate
complement inhibiting activity (complement [3]): found lacking in complement inhibiting activity

O=S(=O)(O)OC[C@H]1O[C@H](OC[C@H]2O[C@H](OC[C@H]3O[C@H](O[C@]4(COS(=O)(=O)O)O[C@H](COS(=O)(=O)O)[C@@H](OS(=O)(=O)O)[C@@H]4OS(=O)(=O)O)[C@H](OS(=O)(=O)O)[C@@H](OS(=O)(=O)O)[C@@H]3OS(=O)(=O)O)[C@H](OS(=O)(=O)O)[C@@H](OS(=O)(=O)O)[C@H]2OS(=O)(=O)O)[C@H](OS(=O)(=O)O)[C@@H](OS(=O)(=O)O)[C@H]1OS(=O)(=O)O [Stachyose Poly(H--)sulfate Triethylamine Salt] [Stachyose Poly(H-)sulfate Triethylamine Salt]
In Vitro Activity 035 [2]: N | In Vitro Activity 026 (activity in wells) (activated human C1): 14 wells | In Vitro Activity 036 (shunt pathway): 2 wells

O=S(=O)(O)OC[C@H]1O[C@H](OC[C@H]2O[C@H](O[C@]3(COS(=O)(=O)O)O[C@H](COS(=O)(=O)O)[C@@H](OS(=O)(=O)O)[C@@H]3OS(=O)(=O)O)[C@H](OS(=O)(=O)O)[C@@H](OS(=O)(=O)O)[C@@H]2OS(=O)(=O)O)[C@H](OS(=O)(=O)O)[C@@H](OS(=O)(=O)O)[C@H]1OS(=O)(=O)O [Raffinose Poly(H--)sulfate Sodium Salt, Raffinose Poly(H-)sulfate Sodium Salt]
In Vitro Activity 026 (activity in wells) (activated human C1; Sodium Salt): 9 wells | In Vitro Activity 036 (shunt pathway; Sodium Salt): 1 wells

O=S(=O)(O)OC[C@H]1O[C@H](OC[C@H]2O[C@H](O[C@]3(COS(=O)(=O)O)O[C@H](COS(=O)(=O)O)[C@@H](OS(=O)(=O)O)[C@@H]3OS(=O)(=O)O)[C@H](OS(=O)(=O)O)[C@@H](OS(=O)(=O)O)[C@@H]2OS(=O)(=O)O)[C@H](OS(=O)(=O)O)[C@@H](OS(=O)(=O)O)[C@H]1OS(=O)(=O)O [Raffinose Poly(H-)sulfate Triethylamine Salt]
In Vitro Activity 035 [2]: N | In Vitro Activity 026 (activity in wells) (activated human C1): 10 wells and 9 wells | In Vitro Activity 036 (shunt pathway): N

heparin
complement inhibiting activity (reported) (complement [4]): reported as having complement inhibiting activity

pentosan polysulfo ester
complement inhibiting activity (reported) (complement [4]): reported as having complement inhibiting activity

O=S(=O)(O)OC[C@H]1O[C@H](OC[C@H]2O[C@H](OC[C@H]3O[C@H](O[C@]4(COS(=O)(=O)O)O[C@H](COS(=O)(=O)O)[C@@H](OS(=O)(=O)O)[C@@H]4OS(=O)(=O)O)[C@H](OS(=O)(=O)O)[C@@H](OS(=O)(=O)O)[C@@H]3OS(=O)(=O)O)[C@H](OS(=O)(=O)O)[C@@H](OS(=O)(=O)O)[C@H]2OS(=O)(=O)O)[C@H](OS(=O)(=O)O)[C@@H](OS(=O)(=O)O)[C@H]1OS(=O)(=O)O [Stachyose Poly(H--)sulfate Trimethylamine Salt] [Stachyose Poly(H-)sulfate Trimethylamine Salt]
In Vitro Activity 035 [2]: N | In Vitro Activity 026 (activity in wells) (activated human C1): 11 wells and 12 wells
